Assay results taken from patent US20210196674A1, “Therapeutics for Malaria” (priority 2015, published 2021).
Where two headings read alike, the source gives them in different places.

What was measured:
[1] = tested on: Staphylococcus aureus; details: cited from earlier work; for growth inhibitory action: alone; for effect with berberine against Staphylococcus aureus: combination with berberine, attributed to inhibition of MDR pump
[2] = tested on: Plasmodium falciparum; details: cited from earlier work; for antimalarial effect: alone, catechins from a crude green tea extract; for effect on Artemisinin activity in vitro: combination with Artemisinin
[3] = in vivo, cited from earlier work; for half-life in the blood: po
[4] = lambs; cited from earlier work
[5] = tested on: malaria (P. falciparum) infection; test: Clinical trials in Haiti: 16-day low-dose Artemisinin with or without Citrus bioflavonoid; type: in vivo, human; details: single 16-day treatment; daily Artemisinin: babies 25 mg, children 2-12 years 50 mg, adults 100 mg; n=17
Procedure: In one example, patients in Haiti with non-complicated and complicated malaria (P. falciparum) infection were recruited to test the efficacy of peroxybioflavonoid treatment. The treated patient population included infants (n=7), children under age 18 (n>100), and adults (n>75).
Each day, babies were given 25 mg, children 2-12 years old received 50 mg and adults 100 mg of Artemisinin (low-dose Artemisinin). In some patients, Artemisinin was given alone. In other patients, the Artemisinin was combined with Citrus bioflavonoid (peroxybioflavonoid). Patients were treated for 16 days.

[6] = after consumption of 200 mg of naringenin, present in grapefruit juice; cited from earlier work
[7] = tested on: Plasmodium berghei; details: curcumin orally 100 mg/kg in combination with Artemisinin at 0.75 and 1.5 mg/mouse; cited from earlier work

COc1cc(-c2oc3cc(OC)c(OC)c(O)c3c(=O)c2OC)ccc1O [chrysoplenetin]
growth inhibitory action [1]: very weak | effect with berberine against Staphylococcus aureus [1]: synergistic effect

O=C(O[C@@H]1Cc2c(O)cc(O)cc2O[C@@H]1c1cc(O)c(O)c(O)c1)c1cc(O)c(O)c(O)c1 [epigallocatechin gallate]
antimalarial effect [2]: antimalarial effects of their own | effect on Artemisinin activity in vitro [2]: potentiate the effects of Artemisinin

C[C@H]1[C@H](OC(=O)CCC(=O)O)O[C@@H]2O[C@@]3(C)CC[C@H]4[C@H](C)CC[C@@H]1[C@@]24OO3 [artesunate]
half-life ([3]; im): 7 to 9 h | half-life in the blood [3]: 1 to 2 h

O=c1c(O)c(-c2ccc(O)c(O)c2)oc2cc(O)cc(O)c12 [quercetin]
bioavailability of moxidectin [4]: increase the bioavailability

C[C@@H]1CC[C@H]2[C@@H](C)C(=O)O[C@@H]3O[C@@]4(C)CC[C@@H]1[C@]32OO4 [Artemisinin]
remained free of malaria post-treatment [5]: up to nine | half-life [3]: very short

O=C1C[C@@H](c2ccc(O)cc2)Oc2cc(O)cc(O)c21 [naringenin]
plasma concentrations [6]: ≤ 6.0 µM

CCO[C@H]1O[C@@H]2O[C@@]3(C)CC[C@H]4[C@H](C)CC[C@@H]([C@H]1C)[C@@]24OO3 [arteether]
half-life ([3]; im): 7 to 9 h | half-life in the blood [3]: 1 to 2 h

catechin gallate
antimalarial effect [2]: antimalarial effects of their own | effect on Artemisinin activity in vitro [2]: potentiate the effects of Artemisinin

COc1cc(/C=C/C(=O)CC(=O)/C=C/c2ccc(O)c(OC)c2)ccc1O [curcumin]
survival rate of infected mice [7]: increased survival rate

COc1cc2oc(-c3ccc(O)c(O)c3)c(OC)c(=O)c2c(O)c1OC [chrysosplenol-D]
growth inhibitory action [1]: very weak | effect with berberine against Staphylococcus aureus [1]: synergistic effect
